PMC7403980, “Anti-Inflammatory Effects of the Novel PIM Kinase Inhibitor KMU-470 in RAW 264.7 Cells through the TLR4-NF-κB-NLRP3 Pathway” (International Journal of Molecular Sciences, 2020)

What was measured:
Format in all cases: cell-based, murine
ASC = experiment: LPS-induced ASC protein expression in RAW 264.7 cells (Western blot); conditions: KMU-470 0.1, 0.5, 1 μM 30 min, LPS 50 ng/mL 6 h
Protocol: (§1) Figure 6 Inhibitory effect of KMU-470 on LPS-induced up-regulation of pro-inflammatory cytokines and activation of NLRP3 inflammasome in RAW 264.7 cells. (A–C) Cells were treated with KMU-470 for 30 min and stimulated with LPS 50 ng/mL for 6 h. The levels of IL-1β, TNF-α, and IL-6 were determined using real time PCR. *** p < 0.001, *p < 0.05. (D) Cells were pre-treated with 0.1, 0.5, and 1 μM of KMU-470 for 30 min and treated with LPS 50 ng/mL for 6 h, respectively. Whole cell lysates were isolated and used to measure the protein expression levels of pro-IL-1β and β-actin by Western blot analysis. (E) Cells were pre-treated with 0.1, 0.5, and 1 μM of KMU-470 for 30 min and treated with LPS 50 ng/mL for 6 h, respectively. Whole cell lysates were isolated and used to measure the protein expression levels of […], ASC, pro-caspase-1, pro-IL-1β, and β-actin by Western blot analysis.
RAW 264.7 cells were pre-treated with KMU-470 (0.5–1 μM/mL) for 24 h and stimulated with LPS (50 ng/mL) for 6 h. […] Immunoreactive proteins were detected using the ELC Western blot detection system kit (Millipore). Signal intensity was measured using the Chemi Image documentation system (Fusion Fx7, VILBER LOUTMAT). Protein expression levels were quantified using the Image J program.

RAW 264.7 cells = experiment: Toxicity / cell viability in RAW 264.7 cells (microscopy, trypan blue, XTT); conditions: up to 1 µM, 24 h, trypan blue cell count
Protocol: Figure 3 Inhibitory effect of KMU-470 on LPS-induced NO production and iNOS protein expression, and cell viability in RAW 264.7 cells. (A) The cells were pre-treated with KMU-470 at a concentration of 1 μM for 30 min and then treated with different concentrations of LPS for 24 h. Nitrite in the culture supernatant was collected and evaluated using Griess reagent. Absorbance was measured at 540 nm. *** p < 0.001, ** p < 0.01, * p < 0.05. (B) Cells are pre-treated with two different concentrations of KMU-470 (0.5 μM and 1 μM) for 30 min, followed by treatment with 1 μg/mL LPS for 24 h. β-actin was used as an internal control for Western blot analysis. (C) Image-J program was used to analyze the relative optical density of the iNOS band. (D) Cells were treated with various concentrations of KMU-470 for 24 h. The effects of KMU-470 on cell proliferation and morphological changes were observed by microscopy (X100). (E) The cell proliferation rate was determined by cell count using a trypan blue exclusion assay. *p < 0.05 (F) Effect of KMU-470 on cell viability was measured by XTT assay. *** p < 0.001.
The cell viability assay was performed using a 2,3-bis (2-methoxy-4-nitro-5-sulphonyl)-2H-tetrazolium-5-carboxanilide (XTT) assay (Welgene Inc, Daegu, Korea). […] The optical density (OD) was measured using a microplate reader (BMG Labtech, Ortenberg, Germany) at a 450 nm wavelength. […]

TNF-α = experiment: LPS-induced TNF-α mRNA in RAW 264.7 cells (real time PCR); conditions: KMU-470 30 min, LPS 50 ng/mL 6 h
Protocol: as §1
Total RNA was isolated using TriZol reagent (Life Technologies; Gaithersburg, MD, USA) according to the manufacturer’s protocol. Total RNA absorbance was quantified by using Nanodrop 1000 (Thermo Fisher Scientific, Waltham, MA, USA). […] Real time quantitative PCR was performed by using the SYBR green premix (Roche Diagnostics, Mannheim, Germany) on the LightCycler 480 PCR (system Roche Diagnostics, Mannheim, Germany). […]

p38 = experiment: LPS-induced phosphorylation of p38 in RAW 264.7 cells (Western blot); conditions: KMU-470 1 μM 24 h pre-treatment, LPS 50 ng/mL
Protocol: Figure 5 Effect of KMU-470 on LPS-induced phosphorylation of MAPKs/ IKKs/ NF-κB in RAW 264.7 cells. (A) Cells were pre-treated with 1μM of KMU-470 for 24 h and stimulated with LPS (50 ng/mL) at the indicated times. (C) Cells were pre-treated with 0.5 and 1μM of KMU-470 for 30 min prior to LPS treatment. Total proteins were isolated after 6 h exposure to LPS (50 ng/mL). The protein expression level of MAPKs, p-IKKα/β, and p-NF-κB were assessed using Western blot analyses. (B,D) The relative optical densities of MAPKs, p-IKKα/β, and p-NF-κB bands were analyzed by the Image-J program. *** p < 0.001.
RAW 264.7 cells were pre-treated with KMU-470 (0.5–1 μM/mL) for 24 h and stimulated with LPS (50 ng/mL) for 6 h. After stimulation, total cells were harvested, washed with PBS buffer, and then the total protein was extracted with a RIPA buffer (0.1 mM sodium orthovanadate, 137 mM NaCl, 15 mM EGTA, 0.1% Triton X-100, 25 mM MOPS, 15 mM MgCl2, 100 μM phenylmethylsulfonyl fluoride, and 20 μM leupeptin, adjusted to pH 7.2). […] Immunoreactive proteins were detected using the ELC Western blot detection system kit (Millipore). Signal intensity was measured using the Chemi Image documentation system (Fusion Fx7, VILBER LOUTMAT). Protein expression levels were quantified using the Image J program.

IL-1β mRNA = experiment: LPS-induced IL-1β mRNA expression in RAW 264.7 cells (RT-PCR); conditions: LPS 50 ng/mL 6 h
Protocol: Total RNA was isolated, and used to measure the mRNA expression levels of IL-1b and β-actin by RT-PCR analysis. *** p < 0.001, ** p < 0.01. […] (A-C) Cells were treated with KMU-470 for 30 min and stimulated with LPS 50 ng/mL for 6 h. The levels of IL-1β, TNF-α, and IL-6 were determined using real time PCR. *** p < 0.001, *p < 0.05. (D) Cells were pre-treated with 0.1, 0.5, and 1 μM of KMU-470 for 30 min and treated with LPS 50 ng/mL for 6 h, respectively. […] (E) Cells were pre-treated with 0.1, 0.5, and 1 μM of KMU-470 for 30 min and treated with LPS 50 ng/mL for 6 h, respectively. […] Total RNA was isolated using TriZol reagent (Life Technologies; Gaithersburg, MD, USA) according to the manufacturer's protocol. Total RNA absorbance was quantified by using Nanodrop 1000 (Thermo Fisher Scientific, Waltham, MA, USA). […] Real time quantitative PCR was performed by using the SYBR green premix (Roche Diagnostics, Mannheim, Germany) on the LightCycler 480 PCR (system Roche Diagnostics, Mannheim, Germany). The following primer sequences were used: L32 (Housekeeping gene): forward [NT], reverse [NT]-1β; forward [NT], reverse [NT]-α; forward [NT], reverse [NT]-6; forward [NT], reverse [NT].

CN(C)CCNc1cncc(-c2ccc3c(c2)/C(=C/c2cnc[nH]2)C(=O)N3)n1 [KMU-470, (Z)-3-((1H-Imidazol-5-yl)methylene)-5-(6-((2-(dimethylamino)ethyl)amino)pyrazin-2-yl)indolin-2-one]
Expression of ASC protein compared with LPS alone group (ASC): marked decrease | Toxicity in RAW 264.7 cells (RAW 264.7 cells): no toxicity | LPS-induced up-regulation of TNF-α (mRNA) (TNF-α): significantly decreased | p38 phosphorylation level (p38): no change | LPS-induced up-regulation of IL-1β mRNA expression (IL-1β mRNA; 1 µM compound, pre-treatment 1 h, RT-PCR (Figure 2B)): significantly inhibited | LPS-induced up-regulation of IL-1β (mRNA) (IL-1β mRNA; KMU-470 30 min, real time PCR (Figure 6A)): significantly decreased
